Experimental data published in article PMC11878239, “Biochemical investigations using mass spectrometry to monitor JMJD6-catalysed hydroxylation of multi-lysine containing bromodomain-derived substrates” (RSC Chemical Biology, 2025).
“Also recorded” adds a separate entry of the source.

Legend:
[1] = molecular target: T1, full-length His6-JMJD6 (Homo sapiens, UniProt Q6NYC1); assay: SPE-MS kinetics of JMJD6-catalysed lysyl hydroxylation (2OG, Fe(II), LAA, BRD-derived peptides); type: biochemical; conditions: for tri- or higher-order hydroxylation: 0.05 μM JMJD6, SPE-MS time courses
T1 construct: An enzyme mixture (10 μL) containing full-length His6-JMJD6 (5 μM; final concentration: 0.05 μM); made in house; host or cells: Escherichia coli BL21 (DE3), pET-28a(+) plasmid
Method: (§1) Recombinant human JMJD6 (full length with a N-terminal His6-tag) was produced in Escherichia coli BL21 (DE3) cells using a pET-28a(+) plasmid and purified by standard Ni(II)-affinity size-exclusion chromatography, as previously reported.[40] […] Purified JMJD6 was stored at −78 °C; fresh aliquots were used for all JMJD6 assays.
Peptides were used as 10 mM stock solutions in DMSO (Sigma-Aldrich; BioUltra grade).
(§2) Assay samples were aspirated under vacuum for 0.4 s, then loaded onto a C4 solid phase extraction (SPE) cartridge. After loading, the C4 SPE cartridge was washed with 0.1%v/v aqueous formic acid to remove non-volatile buffer salts (5 s, 1.5 mL min^−1). The peptide was eluted from the SPE cartridge with 0.1%v/v aqueous formic acid in 75/25v/v acetonitrile/water into the mass spectrometer (5 s, 1.6 mL min^−1) and the SPE cartridge re-equilibrated with 0.1%v/v aqueous formic acid (1 s, 1.25 mL min^−1).
Peaks corresponding to the m/z +5 charge states of the BRD-derived substrate peptide and the hydroxylated product peptides were extracted from the ion chromatogram and integrated using RapidFire Integrator 4.3.0 (Agilent). Peak area data were exported into Microsoft Excel and used to calculate the relative abundance of the mono-hydroxylated product peptide using the following equation: […]
The concentration of the mono-hydroxylated product peptide was calculated by multiplying the %-fraction of the mono-hydroxylated product peptide by the initial concentration of the substrate peptide employed in the assay. Initial reaction velocities were then calculated and fitted to a Michaelis–Menten plot using nonlinear regression (GraphPad Prism 5).

[2] = molecular target: T1, full-length His6-JMJD6; assay: SPE-MS kinetics of JMJD6 for O2; type: biochemical
Method: as §1
Assays to determine the kinetic parameters of JMJD6 for O2 were performed in 2 mL gas-tight glass vials (Sigma-Aldrich) in independent triplicates. 50 mM Tris buffer (pH 7.5; 0.95 mL) was incubated in a 2 mL gas-tight glass vial at 37 °C for 30 min with a fixed O2 concentration (in N2; specified in Fig S9, ESI ^†), adjusted using a mass flow controller. […] The JMJD6-catalysed reaction was performed at 37 °C at a fixed O2 concentration and was stopped after the reaction time specified (Fig. S9, ESI ^†) by the addition of 20%v/v aqueous formic acid (100 μL) and analysed by SPE-MS. The %-concentration of O2 in N2, adjusted with a mass flow controller, was converted into an O2 concentration [μM] by calibration using a standard (i.e., y[μM] = 9.026·x[%]).[100] Data were analysed by SPE-MS as described above to calculate apparent JMJD6 kinetic parameters for O2.

[3] = molecular target: T1, full-length His6-JMJD6; assay: SPE-MS time-course of JMJD6-catalysed hydroxylation of BRD-derived peptides; type: biochemical; conditions: 0.05 μM JMJD6, 2 μM peptide, 2OG 200 μM, FAS 2 μM, LAA 100 μM, Tris 50 mM pH 7.5
Method: Fig. 2 JMJD6-catalysed hydroxylation of homologous 40 mer peptides derived from bromodomain-containing proteins BRD2, BRD3, and BRD4. (a)–(c) Red MS spectra: JMJD6-catalysed hydroxylation after 10 min of (a) BRD2_520–559, (b) BRD3_463–502, and (c) BRD4_511–550. Black MS spectra: no enzyme controls. (d)–(f) JMJD6-catalysed hydroxylation of (d) BRD2_520–559, (e) BRD3_463–502, and (f) BRD4_511–550 showing the relative abundance of the non-hydroxylated substrate (orange circles), mono-hydroxylated product (green squares), di-hydroxylated product (purple triangles) and tri-hydroxylated product (light blue diamonds) over time. Data are means of three independent runs (n = 3; means ± SD).
as §2, with “The JMJD6-catalysed hydroxylation of the BRD-derived substrate peptide was monitored at ambient temperature by SPE-MS using a RapidFire RF 365 high-throughput sampling robot (Agilent) attached to an iFunnel Agilent 6550 accurate mass quadrupole time-of-flight (Q-TOF) mass spectrometer, which was operated in the positive ionization mode. Assay” for “Assay”
Peaks corresponding to the m/z +5 charge states of the BRD-derived substrate peptide and the hydroxylated product peptides were extracted from the ion chromatogram and integrated using RapidFire Integrator 4.3.0 (Agilent). Peak area data were exported into Microsoft Excel and used to calculate the relative abundance of the mono-hydroxylated product peptide using the following equation:
% of mono-hydroxylated product peptide = 100 × (integral of mono-hydroxylated product peptide)/(integral of non-hydroxylated substrate peptide + sum of integrals of all hydroxylated product peptides). Note that for the time-period used to calculate initial reaction velocities, negligible amounts of multi-hydroxylated product peptide were observed (<5%); therefore, the sum of integrals of all hydroxylated product peptides ≈ the integral of the mono-hydroxylated product peptide.

[4] = retention on SPE cartridges; type: physicochemical; conditions: C4 SPE cartridge
Source text: as §2, with “The JMJD6-catalysed hydroxylation of the BRD-derived substrate peptide was monitored at ambient temperature by SPE-MS using a RapidFire RF 365 high-throughput sampling robot (Agilent) attached to an iFunnel Agilent 6550 accurate mass quadrupole time-of-flight (Q-TOF) mass spectrometer, which was operated in the positive ionization mode. Assay” for “Assay”

LAELQEQLKAVHEQLAALSQPQQNKPKKKEKDKKEKKKEK [BRD4_511–550, 40-mer peptide fragment derived from human BRD4, JMJD6 substrate, prepared by SPPS]
tri- or higher-order hydroxylation ([1]; ambient temperature): negligible levels of BRD4_511–550 hydroxylations beyond mono-hydroxylation
tri- or higher-order hydroxylation ([1]; ambient temperature, listed as BRD4511-550): No evidence for triple; also recorded: No evidence for triple (or higher order)
apparent maximum velocity v^app max ([1]; BRD peptide substrate varied, 0.05 μM full-length His6-JMJD6, 2OG 200 μM, FAS 2 μM, LAA 100 μM, 50 mM Tris pH 7.5, ambient temperature, mono-hydroxylation, substrate inhibition fit, mean ± SD n = 3): 5.8 ± 1.2 nM/s
K m ([1]; BRD peptide substrate varied, 0.05 μM full-length His6-JMJD6, 2OG 200 μM, FAS 2 μM, LAA 100 μM, 50 mM Tris pH 7.5, ambient temperature, substrate inhibition fit, mean ± SD n = 3, read-out: Michaelis constant Km (K^app m)): 0.62 ± 0.26 µM
turnover number kcat (k^app cat) ([1]; BRD peptide substrate varied, 0.05 μM full-length His6-JMJD6, 2OG 200 μM, pH 7.5, SPE-MS, calculated from v^app max assuming active JMJD6 = total enzyme, n = 3): 0.12 ± 0.02 s⁻¹
catalytic efficiency kcat/Km ([1]; BRD peptide substrate varied, 0.05 μM full-length His6-JMJD6, 2OG 200 μM, pH 7.5, SPE-MS, n = 3): 190000 ± 80000 M⁻¹ s⁻¹
relative abundance of mono-hydroxylated peptide at plateau ([1]; absence of LAA, after ~10 min, 50 nM JMJD6, 2OG 200 μM, FAS 2 μM, peptide 2 μM, pH 7.5, n = 3): ~15%
substrate inhibition of JMJD6 catalysis ([1]; high substrate concentrations (>2 μM)): inhibit JMJD6 catalysis
JMJD6-catalysed hydroxylation at low O2 ([2]; [O2] < 2.5%): inhibited at low oxygen concentrations; also recorded: sensitive to low O2 concentrations
di- or higher-order hydroxylation ([2]; varied O2, 37 °C, 60 or 90 s): no evidence for di- (or higher order) hydroxylation
number of hydroxylation products observed (+16 Da mass shifts) ([3]; initial time-course, n = 3): two
hydroxylation by JMJD6 (in words) ([3]; time-course, SPE-MS): efficiently hydroxylated by isolated recombinant JMJD6; also recorded: mono-hydroxylated more efficiently than BRD3_463–502 whilst showing substantially lower levels of di-hydroxylation and no tri-hydroxylation by comparison with BRD2_520–559; also recorded: multiple hydroxylations
retention on SPE cartridge [4]: efficiently retained on a C4 SPE cartridge
